Data published in article PMC11681865, “Oligomerization of protein arginine methyltransferase 1 and its functional impact on substrate arginine methylation” (The Journal of Biological Chemistry, 2024).
“Also recorded” adds a separate entry of the source.

How the values were obtained:
PRMT1 [1] = molecular target: T1, PRMT1 (Homo sapiens, UniProt Q99873); experiment: MALDI-MS methylation states of R4 peptide by PRMT1-WT; type: biochemical; conditions: 0.5 μM vs 1 μM PRMT1, 10 μM R4, 50 μM SAM, 30 min
T1 construct: human PRMT1 protein (amino acid residue 11–353); His6; made in house
T1 sequence (Q99873 11-353 isoform Q99873-3): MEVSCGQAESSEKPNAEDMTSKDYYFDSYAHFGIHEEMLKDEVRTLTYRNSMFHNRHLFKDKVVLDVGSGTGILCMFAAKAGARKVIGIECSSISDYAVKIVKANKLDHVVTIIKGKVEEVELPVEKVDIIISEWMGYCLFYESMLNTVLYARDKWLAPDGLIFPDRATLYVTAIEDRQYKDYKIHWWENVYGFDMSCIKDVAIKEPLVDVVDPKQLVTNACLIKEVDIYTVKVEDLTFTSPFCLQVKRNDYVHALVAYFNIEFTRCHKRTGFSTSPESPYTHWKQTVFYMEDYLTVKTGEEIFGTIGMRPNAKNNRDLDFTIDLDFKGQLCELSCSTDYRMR
Excerpt: (§1) It is known that PRMT1 can mono- and di-methylate an arginine residue on a protein or peptide substrate sequence, which results in monomethylarginine and asymmetric dimethylarginines product states. We attempted to examine whether oligomerization promotes PRMT1 ability to generate multiple methylation states in substrates. We used a synthetic peptide with four possible arginine methylation sites for PRMT1: the R4 peptide (Ac-[…]). R4 peptide, SAM, and different concentrations of PRMT1 were mixed in an aqueous buffer to allow methylation to occur, and then the mixture was subjected to MALDI-MS analysis. […] Our rationale is that, even though PRMT1-E153Q is catalytically dead, it can still interact with PRMT1-WT, resulting in hybrid higher oligomers. Therefore, presenting varying amounts of PRMT1-E153Q to a fixed concentration of PRMT1-WT would be another ideal way to test how oligomerization impacts on PRMT1 activity. […] Next, the concentration of PRMT1-WT was kept constant at 0.5 μM, but the concentration of PRMT1-E153Q was changed (Fig. 4). […] We further tested the methylation of the H4 peptide by 0.1 μM PRMT1-WT with the presence of PRMT1-E153Q.
Figure 3 Determine the methylation state of R4 peptide by PRMT1 high-order oligomers. The reaction consisted of 0 μM (A), 0.5 μM (B), 1 μM (C) of PRMT1, 10 μM R4 peptide, and 50 μM SAM for 30 min at room temperature. […]

PRMT1-WT = molecular target: T2, PRMT1-WT (Homo sapiens, UniProt Q99873); experiment: Radiometric P81 filter-binding assay, PRMT1-WT concentration dependence; type: biochemical; conditions: 50 μM peptide, 2 μM [3H]-SAM and 48 μM SAM, 30 min, room temperature, pH 8.0
T2 construct: His-MBP (N, cleaved yes); made in house; host or cells: Escherichia coli BL21 (DE3) RIPL
T2 sequence (Q99873 11-353 isoform Q99873-3): as above
Excerpt: We used the phosphocellulose P81 filter paper–binding assay to measure the catalytic activity of PRMT1 at different concentrations on individual peptides. Each reaction mixture was composed of PRMT1-WT at varied concentrations, at fixed concentrations of SAM and peptide. The reaction mixture was quenched with isopropanol, transferred to the P81 filter paper, and washed with sodium bicarbonate buffer (pH 9). […] The measured count-per-minute (CPM) values correlated directly with the amounts of methylated peptide products. In a typical enzymatic catalysis, the product should be formed linearly as a function of enzyme concentration.
Various concentrations of PRMT1-WT were incubated with radioactive 2 μM [3H]-SAM and 48 μM SAM and 50 μM of indicated peptides for 30 min. The reaction was quenched with 100% isopropanol.
The reaction buffer consisted of 50 mM Hepes pH 8.0, 10 mM NaCl, 0.5 mM EDTA, and 0.5 mM DTT. The reaction was incubated at room temperature for 30 min after being initiated with ^3H-SAM SAM. An equal amount of 100% isopropanol to the total reaction volume was used to quench the reaction. The reaction liquid was transferred onto the phosphocellulose P81 filter paper (1.1 cm × 2 cm, Protein Chemistry & Metabolism Unit at St Vincent's Institute of Medical Research). The P81 filter papers containing the samples were left at room temperature for 30 min to airdry. […]

[2] = system: PRMT1-WT / PRMT1-E153Q oligomers; experiment: MALDI-MS methylation states of R4 peptide by PRMT1-WT with added PRMT1-E153Q; type: biochemical, human; conditions: 0.5 μM PRMT1-WT, 0-2 μM PRMT1-E153Q
Excerpt: as §1
Figure 4 Determine the methylation state of R4 peptide by PRMT1 and PRMT1-E153Q oligomers formation. PRMT1 and PRMT1-E153Q was incubated on ice for 20 min before the addition of 10 μM R4 and 50 μM of SAM. […]

R4 peptide = experiment: MALDI-MS methylation activity of PRMT1-E153Q and PRMT1-WT on R4 peptide; type: biochemical; conditions: 2 μM PRMT1, 10 μM R4, 50 μM SAM, 30 min, room temperature
Excerpt: as §1
The reaction buffer contained 50 mM Hepes pH 8.0, 10 mM NaCl, 0.5 mM EDTA, and 0.5 mM DTT. The reaction consisted of PRMT1 at various concentrations, 10 μM of R4 (Peptide Sequence: Ac-[…]), and 50 μM of SAM. […]

PRMT1 [3] = molecular target: T1, PRMT1; experiment: Dynamic light scattering of PRMT1 oligomers; type: physicochemical; conditions: no denaturant, 50 mM Hepes pH 8, 10 mM NaCl, 0.5 mM EDTA, 0.5 mM DTT, 25 °C, average of three runs of 25 scans
Excerpt: Dynamic light scattering (DLS) uses a laser to measure the particle size distribution ([26]). The DLS can give information regarding the heterogeneity of protein in a sample ([27]). In the past, DLS was used to study microbial and viral structure ([28]). Nowadays, DLS is a popular method for studying nanoparticles, liposomes, and exosomes ([29], [30], [31], [32]). Researchers have also used DLS to study the protein folding of bovine serum albumin ([33]). Therefore, we envisage that the DLS can be utilized to analyze the size changes of PRMT1 oligomeric compositions in an aqueous solution. We expect to see an increase in size with increasing protein concentrations. The prepared PRMT1 protein at varied concentrations was allowed to incubate in the aqueous buffer for equilibrium on ice for 10 min. The protein solution was filtered with 0.2-micron filter to remove any big interfering particles. The protein size was analyzed using a Malvern Zetasizer instrument. We took an average of three runs with about 25 scans each time to evaluate the data. […] Guanidine hydrochloride is a popular protein denaturant ([34]). […] As a negative control, we incubated PRMT1 in the presence of 6 M guanidine hydrochloride to disrupt oligomer formation. […] A literature reported that guanidine thiocyanate is a stronger denaturant than guanidine hydrochloride ([35]).
Figure 2 Oligomerization of PRMT1 detection by dynamic light scattering. Various concentrations of PRMT1 were incubated on ice for 10 min, then filtered by 0.2-micron syringe filter and collected data from the DLS. The top line with black circle indicates PRMT1 without denaturant. The open triangle and hexagon lines indicated PRMT1 oligomeric structure disrupted by 6 M guanidine hydrochloride and 5 M guanidine thiocyanate, respectively.
Indicated concentrations of PRMT1 were incubated for 10 min on ice with buffer (50 mM Hepes pH 8, 10 mM NaCl, 0.5 mM EDTA, 0.5 mM DTT) and filtered through the 0.22 μm syringe filter. For the experiment to disrupt the oligomer formation, 6 M of guanidine hydrochloride or 5 M of guanidine thiocyanate was added to the reaction. The samples were injected into the 1 ml disposable cuvette and measured by Zetasizer Nano ZS (Malvern Instruments) at 25 °C. Three measurements of 25 scans each were collected to average. The data was analyzed by the Malvern Zetasizer software v7.10.

| Substance | methylation states observed (PRMT1 [1]) | PRMT1 enzymatic activity (CPM) vs PRMT1 concentration (PRMT1-WT) | R4 methylation states vs PRMT1-E153Q concentration [2] | number of methylation states in R4 substrate by PRMT1-WT (R4 peptide) | Z-average vs PRMT1 concentration (PRMT1 [3]) |
| --- | --- | --- | --- | --- | --- |
| Ac-GGRGGFGGRGGKGGRGGFGGRGGFG [R4 peptide, synthetic peptide with four possible arginine methylation sites for PRMT1] | multimethylated by PRMT1, from monomethylation to penta-methylation and hexa-methylation; also recorded: the hexa-methylation peak was only observed at 1 μM | increase as higher-order oligomeric structures were formed | the amounts of all of the different methylation states increased as more and more PRMT1-E153Q protein was added; also recorded: hexa- and hepta-methylated R4 peptides appeared when PRMT1-E153Q was increased up at 2 μM | – | – |
| protein arginine methyltransferase 1 [PRMT1] | – | – | – | up to six methylation states in the R4 substrate | increased gradually with the increase in PRMT1 concentration |
